Source: PubChem BioAssay (NCI)
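Five concentrations, 48 hours, 96-well plates. Abbreviation: GI50, concentration required for 50% inhibition of growth. TGI: concentration producing complete growth inhibition.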

Columns and labels:
Assay in all cases: NCI-60 cell line screen, 48 h
SF-268 CNS = test system: SF-268 CNS
PC-3 prostate = test system: PC-3 prostate
HS 578T breast = test system: HS 578T breast
SF-295 CNS = test system: SF-295 CNS
DU-145 prostate = test system: DU-145 prostate
OVCAR-8 ovarian = test system: OVCAR-8 ovarian
CAKI-1 renal = test system: CAKI-1 renal
OVCAR-3 ovarian = test system: OVCAR-3 ovarian
HOP-92 NSCLC = test system: HOP-92 NSCLC
UACC-257 melanoma = test system: UACC-257 melanoma

CC(=O)c1cc(C(=O)c2ccc3c(c2)Sc2ccccc2N3)c2cc(C)ccn12
GI50 (SF-268 CNS): 0.0823 µM | TGI (SF-268 CNS): > 100 µM | GI50 (PC-3 prostate): 0.0506 µM | TGI (PC-3 prostate): > 100 µM | GI50 (HS 578T breast): 0.084 µM | TGI (HS 578T breast): > 100 µM | GI50 (SF-295 CNS): 0.036 µM | TGI (SF-295 CNS): 4.15 µM | GI50 (DU-145 prostate): 0.188 µM | TGI (DU-145 prostate): > 100 µM | GI50 (OVCAR-8 ovarian): 0.451 µM | TGI (OVCAR-8 ovarian): > 100 µM | GI50 (CAKI-1 renal): 0.053 µM | TGI (CAKI-1 renal): > 100 µM | GI50 (OVCAR-3 ovarian): 0.0323 µM | TGI (OVCAR-3 ovarian): 0.112 µM | GI50 (HOP-92 NSCLC): > 100 µM | TGI (HOP-92 NSCLC): > 100 µM

Cc1cc(C)nc(NS(=O)(=O)c2ccc(Nc3c4ccc(Cl)cc4nc4c(C(=O)NCCN(C)C)cccc34)cc2)n1
TGI (SF-268 CNS): > 100 µM | TGI (UACC-257 melanoma): > 100 µM | TGI (SF-295 CNS): > 100 µM | TGI (OVCAR-8 ovarian): > 100 µM | TGI (CAKI-1 renal): > 100 µM | TGI (OVCAR-3 ovarian): > 100 µM | TGI (HOP-92 NSCLC): > 100 µM

O=C(Nc1ccccc1)c1cc(S(=O)(=O)Nc2nc3ccccc3o2)c(SCc2ccccc2)cc1Cl
GI50 (SF-268 CNS): 15.4 µM | TGI (SF-268 CNS): 41.4 µM | GI50 (PC-3 prostate): 21.7 µM | TGI (PC-3 prostate): 46.7 µM | GI50 (HS 578T breast): 14.5 µM | TGI (HS 578T breast): 44.3 µM | GI50 (UACC-257 melanoma): 19.6 µM | TGI (UACC-257 melanoma): 38.6 µM | GI50 (SF-295 CNS): 18.5 µM | TGI (SF-295 CNS): 33 µM | GI50 (DU-145 prostate): 16.5 µM | TGI (DU-145 prostate): 32.4 µM | GI50 (OVCAR-8 ovarian): 24.5 µM | TGI (OVCAR-8 ovarian): 65 µM | GI50 (CAKI-1 renal): 19.3 µM | TGI (CAKI-1 renal): 35.5 µM | GI50 (OVCAR-3 ovarian): 19.9 µM | TGI (OVCAR-3 ovarian): 40 µM

O=C(/C(=C\c1ccc(Cl)cc1)c1ccccc1)c1ccccc1
TGI (SF-268 CNS): > 100 µM | TGI (UACC-257 melanoma): > 100 µM | TGI (SF-295 CNS): > 100 µM | TGI (OVCAR-8 ovarian): > 100 µM | TGI (HOP-92 NSCLC): > 100 µM

COc1ccc(C2C=C(c3ccc4c(c3)OCO4)Oc3c2c(=O)oc2ccccc32)cc1OC (configuration not stated)
TGI (SF-268 CNS): > 100 µM | TGI (PC-3 prostate): > 100 µM | TGI (HS 578T breast): > 100 µM | TGI (SF-295 CNS): > 100 µM | TGI (DU-145 prostate): > 100 µM | TGI (OVCAR-8 ovarian): > 100 µM | TGI (CAKI-1 renal): > 100 µM | TGI (OVCAR-3 ovarian): 15.5 µM | TGI (HOP-92 NSCLC): > 73.1 µM

CC#CC1C2CCCC1(CSc1ccccc1)NC(=O)O2 (configuration not stated)
TGI (SF-268 CNS): > 100 µM | TGI (UACC-257 melanoma): > 100 µM | TGI (SF-295 CNS): > 100 µM | TGI (OVCAR-8 ovarian): > 100 µM | TGI (CAKI-1 renal): > 100 µM | TGI (OVCAR-3 ovarian): > 100 µM | TGI (HOP-92 NSCLC): > 100 µM

c1ccc2c(c1)N=C(c1cccc3ccccc13)CC(c1ccc3c(c1)OCO3)S2 (configuration not stated)
TGI (SF-268 CNS): > 100 µM | TGI (UACC-257 melanoma): > 100 µM | TGI (SF-295 CNS): > 100 µM | TGI (OVCAR-8 ovarian): > 100 µM | TGI (CAKI-1 renal): > 100 µM | TGI (OVCAR-3 ovarian): > 100 µM

CS(=O)(=O)CC(=O)c1ccccc1
TGI (SF-268 CNS): > 100 µM | TGI (PC-3 prostate): > 100 µM | TGI (HS 578T breast): > 100 µM | TGI (UACC-257 melanoma): > 100 µM | TGI (SF-295 CNS): > 100 µM | TGI (DU-145 prostate): > 100 µM | TGI (OVCAR-8 ovarian): > 100 µM | TGI (OVCAR-3 ovarian): > 100 µM

CCNC(=O)O/N=C1\CCC2[C@@H]3CC=C4C[C@@H](OC5CCCCO5)CC[C@]4(C)C3CC[C@]12C (some centres not stated)
TGI (UACC-257 melanoma): 4.41 µM | TGI (SF-295 CNS): 7.11 µM | TGI (OVCAR-8 ovarian): 18.2 µM | TGI (CAKI-1 renal): 6.19 µM | TGI (OVCAR-3 ovarian): 10.7 µM | TGI (HOP-92 NSCLC): 7.34 µM

OCc1ccc(N2CCc3ccccc3C2)cc1Cl
GI50 (SF-268 CNS): 32.5 µM | TGI (SF-268 CNS): > 100 µM | GI50 (PC-3 prostate): 17.2 µM | TGI (PC-3 prostate): > 62.3 µM | GI50 (HS 578T breast): 32.6 µM | TGI (HS 578T breast): > 89.8 µM | GI50 (DU-145 prostate): 2.38 µM | TGI (DU-145 prostate): 22.3 µM | GI50 (OVCAR-8 ovarian): 3.66 µM | TGI (OVCAR-8 ovarian): 36.6 µM | GI50 (CAKI-1 renal): 0.568 µM | TGI (CAKI-1 renal): 14.1 µM | GI50 (OVCAR-3 ovarian): < 0.0161 µM | TGI (OVCAR-3 ovarian): 0.0389 µM | GI50 (HOP-92 NSCLC): 0.0448 µM | TGI (HOP-92 NSCLC): 9.28 µM

C=C(C(=C)P(=S)(c1ccccc1)c1ccccc1)P(=S)(c1ccccc1)c1ccccc1
TGI (SF-268 CNS): > 100 µM | TGI (UACC-257 melanoma): > 100 µM | TGI (SF-295 CNS): > 100 µM | TGI (OVCAR-8 ovarian): > 100 µM | TGI (CAKI-1 renal): > 100 µM | TGI (OVCAR-3 ovarian): > 100 µM | TGI (HOP-92 NSCLC): > 100 µM
